The structures appear in SMILES notation. Calls of active or inactive are those of the source. The calls are words filed in the database; no cut-off is given here.

Data set [1] in a line: Cytotoxicity against preformed fibrils-treated mouse TH-positive dopaminergic neurons at 0.1 to 10 uM incubated for 7 days by immunostaining analysis. It counts as toxicity, cell-based. The following applies: neuron, 168 h, dose 0.1-10 µM, time 7 day.
For data set [2], the target named is Alpha-synuclein (Homo sapiens) (UniProt P37840). Kind of data set: Binding affinity to human alpha-synuclein expressed in Escherichia coli BL21(DE3) assessed as compound-protein complex formation at ratio of 1:1 incubated at compound:protein ratio of 10:1 for 3 hrs by ESI-MS spectrum analysis.

Take `CN(C)C(=N)NCCS(=O)(=O)O`: the Activity result in data set [1] is given as “Non-Toxic”. Also, in data set [2], the result was Active.
